Results on 19 compounds are retold here after patent publication US20230141603A1, “BENZODIAZEPINE DERIVATIVES AS GABA A GAMMA1 PAM” (Hoffmann-La Roche Inc., priority 2021, published 2023).

The test deals with T1, h-GABAA α2β2γ1 (Homo sapiens, UniProt P47869+Q8N1C3).
T1 sequence (P47869 29-451): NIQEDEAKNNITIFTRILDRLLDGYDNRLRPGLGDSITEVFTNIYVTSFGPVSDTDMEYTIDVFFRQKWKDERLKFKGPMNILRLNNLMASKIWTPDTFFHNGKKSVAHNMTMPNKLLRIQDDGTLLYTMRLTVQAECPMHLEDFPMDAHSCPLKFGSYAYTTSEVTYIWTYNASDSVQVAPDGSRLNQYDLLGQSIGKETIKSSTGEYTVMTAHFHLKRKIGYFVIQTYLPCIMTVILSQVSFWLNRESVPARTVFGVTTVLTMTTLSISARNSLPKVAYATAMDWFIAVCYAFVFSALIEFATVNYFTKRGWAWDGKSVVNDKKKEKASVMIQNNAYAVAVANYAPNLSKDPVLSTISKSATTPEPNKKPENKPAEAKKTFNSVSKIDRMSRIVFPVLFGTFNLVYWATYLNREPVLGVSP
T1 sequence (P47870 25-512 partner limits assumed): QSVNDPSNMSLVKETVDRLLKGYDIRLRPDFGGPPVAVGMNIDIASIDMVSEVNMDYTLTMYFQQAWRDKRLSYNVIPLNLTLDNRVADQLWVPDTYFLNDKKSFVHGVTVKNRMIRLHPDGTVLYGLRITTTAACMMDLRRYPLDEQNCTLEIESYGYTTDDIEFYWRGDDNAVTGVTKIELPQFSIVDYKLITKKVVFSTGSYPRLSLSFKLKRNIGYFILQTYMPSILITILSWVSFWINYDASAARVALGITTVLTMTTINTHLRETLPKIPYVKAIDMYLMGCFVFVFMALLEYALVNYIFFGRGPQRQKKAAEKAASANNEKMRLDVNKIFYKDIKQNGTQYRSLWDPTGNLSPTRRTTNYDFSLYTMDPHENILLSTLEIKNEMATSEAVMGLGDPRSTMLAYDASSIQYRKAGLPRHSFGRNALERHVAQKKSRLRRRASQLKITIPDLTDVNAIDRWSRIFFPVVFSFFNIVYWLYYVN
T1 sequence (Q8N1C3 36-465): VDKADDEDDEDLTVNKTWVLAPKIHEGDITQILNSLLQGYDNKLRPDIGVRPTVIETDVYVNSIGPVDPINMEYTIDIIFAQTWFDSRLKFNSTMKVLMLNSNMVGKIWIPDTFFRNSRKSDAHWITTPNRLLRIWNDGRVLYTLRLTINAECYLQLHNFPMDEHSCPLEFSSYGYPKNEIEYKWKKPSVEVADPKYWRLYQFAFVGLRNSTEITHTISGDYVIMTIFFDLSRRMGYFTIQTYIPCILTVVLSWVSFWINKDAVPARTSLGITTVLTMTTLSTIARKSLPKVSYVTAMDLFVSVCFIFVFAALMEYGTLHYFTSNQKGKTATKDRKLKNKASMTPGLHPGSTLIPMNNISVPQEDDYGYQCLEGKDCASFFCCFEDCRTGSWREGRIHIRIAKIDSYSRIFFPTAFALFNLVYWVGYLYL
Briefly: Two-electrode voltage clamp electrophysiology in Xenopus oocytes, modulation of GABA EC20 current. Format: cell-based. The arrangement: host or cells: Xenopus laevis oocytes, RNA micro-injection. To be noted: Table 2; for Efficacy (GABA)%: % modulation of GABA EC20 = 100*(Fold increase−1), compound at approx. 30-fold Ki; for Fold increase h-GABA-A α2β2γ1 oocyte @ 30-fold Ki: compound at approx. 30-fold its Ki α2β2γ1, GABA EC20, Xenopus oocytes. As for the experimental part:
Xenopus laevis oocytes at maturation stages V-VJ were used for the expression of cloned mRNA encoding GABAA receptor subunits. Oocytes ready for RNA micro-injection were bought from Ecocyte, Castrop-Rauxel, Germany and stored in modified Barth's medium (composition in mM: NaCl 88, KCl 1, NaHCO3 2.4, HEPES 10, MgSO4 0.82, CaNO3 0.33, CaCl2 0.33, pH=7.5) at 20° C. until the experiment.
Oocytes were plated in 96-well plates for microinjection using the Roboinject automated instrument (MultiChannelSystems, Reutlingen, Germany). Approximately 50 nL of an aqueous solution containing the RNA transcripts for the subunits of the desired GABAA receptor subtype was injected into each oocyte. […] Oocytes were kept in modified Barth's medium (composition in mM: NaCl 88, KCl 1, NaHCO3 […], HEPES 10, MgSO4 0.82, CaNO3 0.33, CaCl2 0.33, pH=7.5) at 20° C. until the experiment.
Electrophysiological experiments were performed using the Roboocyte instrument (MultiChannelSystems, Reutlingen, Germany) on days 3 to 5 after the micro-injection of mRNA. During the experiment the oocytes were constantly superfused by a solution containing (in mM) NaCl 90, KCl 1, HEPES 5, MgCl2 1, CaCl2 1 (pH 7.4). Oocytes were impaled by two glass microelectrodes (resistance: 0.5-0.8 MΩ) which were filled with a solution containing KCl 1M+K-acetate 1.5 M and voltage-clamped to −80 mV. The recordings were performed at room temperature using the Roboocyte two-electrode voltage clamp system (Multichannelsystem). After an initial equilibration period of 1.5 min GABA was added for 1.5 min at a concentration evoking approximately 20% of a maximal current response (EC20). After another rest interval of 2.5 min GABA was again added evoking a response of similar amplitude and shape. […] Current traces were recorded at a digitization rate of 10 Hz during and shortly before and after the GABA application.
Each compound and concentration was tested on at least 3 oocytes. Different oocytes were used for different compound concentrations.
For the analysis, the digitized current traces of the first and second GABA response were superimposed and, if necessary, rescaled to equal maximal amplitudes. The ratio between the two responses during the time interval of test compound application was calculated point by point. The extremum of the resulting “ratio trace” was taken as the efficacy (“Fold increase”) of the compound expressed as “% modulation of GABA EC20” (100*(Fold increase−1)).
(In general: In two-electrode clamp one electrode senses voltage and the other passes current.)

Molecules are shown by their SMILES.

Take `Cc1nnc2n1-c1ccc(Br)c(Cl)c1C(c1c(F)cccc1F)=NC2` [Example 1, 8-bromo-7-chloro-6-(2,6-difluorophenyl)-1-methyl-4H-[1,2,4]triazolo[4,3-a][1,4]benzodiazepine]: the “Efficacy (GABA)%” value was 77% and the “Fold increase h-GABA-A α2β2γ1 oocyte @ 30-fold Ki” value was 1.77.

As to `Fc1ccccc1C1=NCc2nnc(C3CC3)n2-c2ccc(Br)c(Cl)c21` [Example 2, 8-bromo-7-chloro-1-cyclopropyl-6-(2-fluorophenyl)-4H-[1,2,4]triazolo[4,3-a][1,4]benzodiazepine], the “Efficacy (GABA)%” value is on record as 84% and the “Fold increase h-GABA-A α2β2γ1 oocyte @ 30-fold Ki” value stood at 1.84.

With `Fc1ccccc1C1=NCc2nnc(-c3cccnn3)n2-c2ccc(Br)c(Cl)c21` [Example 3, 8-bromo-7-chloro-6-(2-fluorophenyl)-1-pyridazin-3-yl-4H-[1,2,4]triazolo[4,3-a][1,4]benzodiazepine], the “Efficacy (GABA)%” value worked out at 113% and the “Fold increase h-GABA-A α2β2γ1 oocyte @ 30-fold Ki” value is given as 2.13.

On to `Cc1nnc2n1-c1ccc(Cl)c(Cl)c1C(c1ccccc1F)=NC2` [Example 4, 7,8-dichloro-6-(2-fluorophenyl)-1-methyl-4H-[1,2,4]triazolo[4,3-a][1,4]benzodiazepine], for which the “Efficacy (GABA)%” value came out at 73% and the “Fold increase h-GABA-A α2β2γ1 oocyte @ 30-fold Ki” value was 1.73.

Take `Cc1nnc2n1-c1ccc(Cl)c(Cl)c1C(c1c(F)cccc1F)=NC2` [Example 5, 7,8-dichloro-6-(2,6-difluorophenyl)-1-methyl-4H-[1,2,4]triazolo[4,3-a][1,4]benzodiazepine]: the “Efficacy (GABA)%” value amounted to 57% and the “Fold increase h-GABA-A α2β2γ1 oocyte @ 30-fold Ki” value came to 1.57.

On to `Cc1nnc2n1-c1ccc(C3CC3)c(Cl)c1C(c1c(F)cccc1F)=NC2` [Example 6, 7-chloro-8-cyclopropyl-6-(2,6-difluorophenyl)-1-methyl-4H-[1,2,4]triazolo[4,3-a][1,4]benzodiazepine], for which the “Efficacy (GABA)%” value was 106% and the “Fold increase h-GABA-A α2β2γ1 oocyte @ 30-fold Ki” value amounted to 2.06.

For the compound `Fc1cccc(F)c1C1=NCc2nncn2-c2ccc(Br)c(Cl)c21` [Example 7, 8-bromo-7-chloro-6-(2,6-difluorophenyl)-4H-[1,2,4]triazolo[4,3-a][1,4]benzodiazepine], the “Efficacy (GABA)%” value is on record as 56% and the “Fold increase h-GABA-A α2β2γ1 oocyte @ 30-fold Ki” value was 1.56.

Turning to `Fc1ccccc1C1=NCc2nncn2-c2ccc(Br)c(Cl)c21` [Example 8, 8-bromo-7-chloro-6-(2-fluorophenyl)-4H-[1,2,4]triazolo[4,3-a][1,4]benzodiazepine], the “Efficacy (GABA)%” value is 58% and the “Fold increase h-GABA-A α2β2γ1 oocyte @ 30-fold Ki” value is listed as 1.58.

`O=c1[nH]nc2n1-c1ccc(Cl)c(Cl)c1C(c1c(F)cccc1F)=NC2` [Example 9, 7,8-dichloro-6-(2,6-difluorophenyl)-2,4-dihydro-[1,2,4]triazolo[4,3-a][1,4]benzodiazepin-1-one]: the “Efficacy (GABA)%” value amounted to 72% and the “Fold increase h-GABA-A α2β2γ1 oocyte @ 30-fold Ki” value was determined as 1.72.

Consider `Fc1ccccc1C1=NCc2nnc(-c3cccnn3)n2-c2ccc(Cl)c(Cl)c21` [Example 10, 7,8-dichloro-6-(2-fluorophenyl)-1-pyridazin-3-yl-4H-[1,2,4]triazolo[4,3-a][1,4]benzodiazepine], for which the “Efficacy (GABA)%” value worked out at 69% and the “Fold increase h-GABA-A α2β2γ1 oocyte @ 30-fold Ki” value stood at 1.69.

Regarding `Fc1cccc(F)c1C1=NCc2nnc(C3CCOCC3)n2-c2ccc(Cl)c(Cl)c21` [Example 11, 7,8-dichloro-6-(2,6-difluorophenyl)-1-tetrahydropyran-4-yl-4H-[1,2,4]triazolo[4,3-a][1,4]benzodiazepine], the “Efficacy (GABA)%” value is on record as 60% and the “Fold increase h-GABA-A α2β2γ1 oocyte @ 30-fold Ki” value is given as 1.60.

Take `Fc1cccc(F)c1C1=NCc2nnc(-c3ccncn3)n2-c2ccc(Cl)c(Cl)c21` [Example 12, 7,8-dichloro-6-(2,6-difluorophenyl)-1-pyrimidin-4-yl-4H-[1,2,4]triazolo[4,3-a][1,4]benzodiazepine]: the “Efficacy (GABA)%” value is 49% and the “Fold increase h-GABA-A α2β2γ1 oocyte @ 30-fold Ki” value is on record as 1.49.

As to `O=c1[nH]nc2n1-c1ccc(Br)c(Cl)c1C(c1c(F)cccc1F)=NC2` [Example 13, 8-bromo-7-chloro-6-(2,6-difluorophenyl)-2,4-dihydro-[1,2,4]triazolo[4,3-a][1,4]benzodiazepin-1-one], the “Efficacy (GABA)%” value turned out to be 52% and the “Fold increase h-GABA-A α2β2γ1 oocyte @ 30-fold Ki” value is reported as 1.52.

With `Fc1cccc(F)c1C1=NCc2nnc(-c3cccnn3)n2-c2ccc(Cl)c(Cl)c21` [Example 14, 7,8-dichloro-6-(2,6-difluorophenyl)-1-pyridazin-3-yl-4H-[1,2,4]triazolo[4,3-a][1,4]benzodiazepine], the “Efficacy (GABA)%” value is 71% and the “Fold increase h-GABA-A α2β2γ1 oocyte @ 30-fold Ki” value was 1.71.

Turning to `Fc1cccc(F)c1C1=NCc2nncn2-c2ccc(Cl)c(Cl)c21` [Example 15, 7,8-dichloro-6-(2,6-difluorophenyl)-4H-[1,2,4]triazolo[4,3-a][1,4]benzodiazepine], the “Efficacy (GABA)%” value is 60% and the “Fold increase h-GABA-A α2β2γ1 oocyte @ 30-fold Ki” value is reported as 1.60.

For the compound `Cc1ccc2c(c1Cl)C(c1c(F)cccc1F)=NCc1n[nH]c(=O)n1-2` [Example 16, 7-chloro-6-(2,6-difluorophenyl)-8-methyl-2,4-dihydro-[1,2,4]triazolo[4,3-a][1,4]benzodiazepin-1-one], the “Efficacy (GABA)%” value was 68% and the “Fold increase h-GABA-A α2β2γ1 oocyte @ 30-fold Ki” value turned out to be 1.68.

Turning to `Cc1ccc2c(c1Cl)C(c1c(F)cccc1F)=NCc1nncn1-2` [Example 17, 7-chloro-6-(2,6-difluorophenyl)-8-methyl-4H-[1,2,4]triazolo[4,3-a][1,4]benzodiazepine], the “Efficacy (GABA)%” value is 70% and the “Fold increase h-GABA-A α2β2γ1 oocyte @ 30-fold Ki” value came to 1.70.

With `Fc1ccccc1C1=NCc2nnc(-c3ccncn3)n2-c2ccc(Cl)c(Cl)c21` [Example 18, 7,8-dichloro-6-(2-fluorophenyl)-1-pyrimidin-4-yl-4H-[1,2,4]triazolo[4,3-a][1,4]benzodiazepine], the “Efficacy (GABA)%” value is recorded as 70% and the “Fold increase h-GABA-A α2β2γ1 oocyte @ 30-fold Ki” value came to 1.70.

With `COCCc1nnc2n1-c1ccc(Cl)c(Cl)c1C(c1c(F)cccc1F)=NC2` [Example 19, 7,8-dichloro-6-(2,6-difluorophenyl)-1-(2-methoxyethyl)-4H-[1,2,4]triazolo[4,3-a][1,4]benzodiazepine], the “Efficacy (GABA)%” value amounted to 72% and the “Fold increase h-GABA-A α2β2γ1 oocyte @ 30-fold Ki” value is given as 1.72.
